Reference: PubChem BioAssay (NCI)
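Briefly, cells in 96-well plates were exposed to five compound concentrations for 48 h, and endpoints were estimated by linear interpolation. GI50 is the concentration that inhibits growth by half. Definition used: TGI = concentration required for complete inhibition of growth.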

Columns and labels:
Test in all cases: NCI anticancer screen, dose series, 48 h
M14 melanoma = tested on: M14 melanoma
NCI-H226 lung = tested on: NCI-H226 lung
NCI-H23 lung = tested on: NCI-H23 lung
OVCAR-3 ovarian = tested on: OVCAR-3 ovarian
SF-295 CNS = tested on: SF-295 CNS
XF 498 CNS = tested on: XF 498 CNS
SK-OV-3 ovarian = tested on: SK-OV-3 ovarian
HS 578T breast = tested on: HS 578T breast
NCI/ADR-RES ovarian = tested on: NCI/ADR-RES ovarian

CC1=C(C(=O)Nc2ccccc2C)C(c2ccccc2O)C(C(=O)Nc2ccccc2C)=C(C)N1
TGI (M14 melanoma): 39.8 µM
TGI (NCI-H226 lung): > 100 µM
TGI (NCI-H23 lung): > 100 µM
TGI (OVCAR-3 ovarian): 36.3 µM
TGI (SF-295 CNS): 40.3 µM
TGI (XF 498 CNS): 61.5 µM

CC(/C=C1\CCC(CN(C)C)C1=O)c1cccc(Br)c1 (stereo not drawn)
TGI (M14 melanoma): 29.2 µM
TGI (NCI-H226 lung): 48.8 µM
TGI (NCI-H23 lung): 38 µM
TGI (OVCAR-3 ovarian): 30.8 µM
TGI (SF-295 CNS): 42.3 µM
TGI (SK-OV-3 ovarian): > 100 µM
TGI (XF 498 CNS): 35.1 µM

Cc1ccc(-c2nc3ccccc3c(=O)n2NC2OC(CO)C(O)C(O)C2O)cc1 (stereo not drawn)
TGI (M14 melanoma): > 100 µM
TGI (NCI-H226 lung): > 100 µM
TGI (NCI-H23 lung): > 100 µM
TGI (OVCAR-3 ovarian): > 100 µM
TGI (SF-295 CNS): > 100 µM
TGI (SK-OV-3 ovarian): > 100 µM
TGI (XF 498 CNS): > 100 µM

CCCc1nn(C)c(CCC(=O)N(Cc2ccccc2)Cc2ccccc2)c1CC
TGI (M14 melanoma): > 100 µM
TGI (NCI-H226 lung): > 100 µM
TGI (NCI-H23 lung): > 100 µM
TGI (OVCAR-3 ovarian): > 100 µM
TGI (SF-295 CNS): > 100 µM
TGI (SK-OV-3 ovarian): > 100 µM
TGI (XF 498 CNS): > 100 µM

O=C(CC1(O)C(=O)Nc2c(Cl)cc(Cl)cc21)c1ccc([N+](=O)[O-])cc1 (stereo not drawn)
TGI (M14 melanoma): > 55.7 µM
TGI (NCI-H226 lung): > 73.3 µM
TGI (NCI-H23 lung): > 78.9 µM
TGI (OVCAR-3 ovarian): > 64.1 µM
TGI (SF-295 CNS): > 100 µM
TGI (SK-OV-3 ovarian): > 100 µM
TGI (XF 498 CNS): > 100 µM

C=C(C)C1CC=C(C)C(O)([C@@]2(O)C[C@H](C(=C)C)CC=C2C)C1 (stereo partly drawn)
TGI (M14 melanoma): 39.9 µM
TGI (NCI-H23 lung): 43.3 µM
TGI (OVCAR-3 ovarian): 29.6 µM
TGI (SF-295 CNS): 48.5 µM
TGI (SK-OV-3 ovarian): 64.1 µM
TGI (XF 498 CNS): 29.7 µM

COC(=O)/C(=N\Nc1nc(=S)[nH]n1N)C(C#N)c1ccc(Cl)cc1 (stereo not drawn)
TGI (M14 melanoma): > 100 µM
TGI (NCI-H226 lung): > 100 µM
TGI (NCI-H23 lung): > 100 µM
TGI (OVCAR-3 ovarian): > 100 µM
TGI (SF-295 CNS): > 100 µM
TGI (SK-OV-3 ovarian): > 100 µM
TGI (XF 498 CNS): > 100 µM

Nc1nc(N)c(CCCCc2ccccc2)c(/C=C/c2ccc([N+](=O)[O-])cc2)n1
TGI (M14 melanoma): 9.24 µM
TGI (NCI-H226 lung): 55.6 µM
TGI (NCI-H23 lung): 33.4 µM
TGI (OVCAR-3 ovarian): 8.4 µM
TGI (SF-295 CNS): 14.5 µM
TGI (SK-OV-3 ovarian): 39.1 µM
TGI (XF 498 CNS): 3.74 µM

CC(=O)CCn1[nH]c(=O)c(Cl)c(Cl)c1=O
TGI (M14 melanoma): > 100 µM
TGI (NCI-H226 lung): > 100 µM
TGI (NCI-H23 lung): > 100 µM
TGI (OVCAR-3 ovarian): > 100 µM
TGI (SF-295 CNS): > 100 µM
TGI (XF 498 CNS): > 100 µM

CC1(C)C2=CCCC(=O)[C@@]2(C)CC[C@@H]1O
TGI (M14 melanoma): > 100 µM
TGI (NCI-H226 lung): > 100 µM
TGI (NCI-H23 lung): > 100 µM
TGI (OVCAR-3 ovarian): > 100 µM
TGI (SF-295 CNS): > 100 µM
TGI (SK-OV-3 ovarian): > 100 µM
TGI (XF 498 CNS): > 100 µM

CCCCCC1CC=CC(NC(=O)OCc2ccccc2)C1/C=C/CCCC1OCCO1 (stereo not drawn)
TGI (M14 melanoma): > 100 µM
TGI (NCI-H226 lung): > 100 µM
TGI (NCI-H23 lung): > 100 µM
TGI (OVCAR-3 ovarian): > 100 µM
TGI (SF-295 CNS): > 100 µM
TGI (SK-OV-3 ovarian): > 100 µM
TGI (XF 498 CNS): > 100 µM

CC1(C)C=C(N2CCN(C3=CC(C)(C)NC(C)(C)C3)CC2)CC(C)(C)N1
TGI (M14 melanoma): > 100 µM
TGI (NCI-H23 lung): > 100 µM
TGI (OVCAR-3 ovarian): > 100 µM
TGI (SF-295 CNS): > 100 µM
TGI (SK-OV-3 ovarian): > 100 µM
TGI (XF 498 CNS): > 100 µM

CCCCCCCCCCCCCP(=O)(OC)OC
TGI (M14 melanoma): 34.7 µM
TGI (NCI-H226 lung): 35.9 µM
TGI (NCI-H23 lung): 35.6 µM
TGI (OVCAR-3 ovarian): 34.6 µM
TGI (SF-295 CNS): 37.1 µM
TGI (SK-OV-3 ovarian): 33.3 µM
TGI (XF 498 CNS): 31.8 µM

CCN(CC)CCOc1ccc(NC(=O)C(C(C)C)N2C(=O)/C(=C/c3ccc(Br)cc3)SC2=S)cc1 (stereo not drawn)
GI50 (HS 578T breast): 12.1 µM
TGI (HS 578T breast): 35.1 µM
GI50 (M14 melanoma): 2.07 µM
TGI (M14 melanoma): 4.27 µM
GI50 (NCI-H226 lung): 16.2 µM
TGI (NCI-H226 lung): 37.3 µM
GI50 (NCI-H23 lung): 3.74 µM
TGI (NCI-H23 lung): 13.9 µM
GI50 (NCI/ADR-RES ovarian): 3.93 µM
TGI (NCI/ADR-RES ovarian): 14.3 µM
GI50 (OVCAR-3 ovarian): 1.95 µM
TGI (OVCAR-3 ovarian): 4.08 µM
GI50 (SF-295 CNS): 3.41 µM
TGI (SF-295 CNS): 11.7 µM
GI50 (SK-OV-3 ovarian): 15.9 µM
TGI (SK-OV-3 ovarian): 31.7 µM

C=C1CCCC2OC(OC)CCC12 (stereo not drawn)
TGI (M14 melanoma): > 100 µM
TGI (NCI-H226 lung): > 100 µM
TGI (NCI-H23 lung): > 100 µM
TGI (OVCAR-3 ovarian): > 100 µM
TGI (SF-295 CNS): > 100 µM
TGI (SK-OV-3 ovarian): > 100 µM
TGI (XF 498 CNS): > 100 µM

Cc1cnc(-c2ccc(-c3ccc(NC(=O)Nc4cccc(C(F)(F)F)c4)cc3F)c3c2C(=O)NC3)[nH]1
GI50 (HS 578T breast): 2.46 µM
TGI (HS 578T breast): 35.4 µM
GI50 (M14 melanoma): 0.624 µM
TGI (M14 melanoma): 32.9 µM
GI50 (NCI-H226 lung): 0.933 µM
TGI (NCI-H226 lung): > 42.7 µM
GI50 (NCI-H23 lung): 4.42 µM
TGI (NCI-H23 lung): 33.5 µM
GI50 (NCI/ADR-RES ovarian): 31.4 µM
TGI (NCI/ADR-RES ovarian): > 100 µM
GI50 (OVCAR-3 ovarian): 14.4 µM
TGI (OVCAR-3 ovarian): 36.7 µM
GI50 (SF-295 CNS): 4.06 µM
TGI (SF-295 CNS): 33.6 µM
GI50 (SK-OV-3 ovarian): 6.97 µM
TGI (SK-OV-3 ovarian): 39.7 µM

Cc1cc2oc(=O)cc(OC/C=C3/CCC(=O)O3)c2cc1C
GI50 (HS 578T breast): 4.76 µM
TGI (HS 578T breast): 43.7 µM
GI50 (M14 melanoma): 2.18 µM
TGI (M14 melanoma): 4.87 µM
GI50 (NCI-H226 lung): 10.8 µM
TGI (NCI-H226 lung): 51.1 µM
GI50 (NCI-H23 lung): 8.04 µM
TGI (NCI-H23 lung): 22.5 µM
GI50 (NCI/ADR-RES ovarian): 5.09 µM
TGI (NCI/ADR-RES ovarian): 23.2 µM
GI50 (OVCAR-3 ovarian): 2.93 µM
TGI (OVCAR-3 ovarian): 11.4 µM
GI50 (SF-295 CNS): 13.7 µM
TGI (SF-295 CNS): 32 µM
GI50 (SK-OV-3 ovarian): 12.8 µM
TGI (SK-OV-3 ovarian): 26.1 µM

CCCCCCCCCCCCCC(=O)NO
TGI (M14 melanoma): 36.2 µM
TGI (NCI-H226 lung): 19 µM
TGI (NCI-H23 lung): 31.1 µM
TGI (OVCAR-3 ovarian): 28 µM
TGI (SF-295 CNS): 60.9 µM
TGI (SK-OV-3 ovarian): 73.5 µM
TGI (XF 498 CNS): 60.3 µM

CSC(=NC(=O)c1ccccc1)SCCSC(=NC(=O)c1ccccc1)SC
TGI (M14 melanoma): > 100 µM
TGI (NCI-H226 lung): > 100 µM
TGI (NCI-H23 lung): > 100 µM
TGI (OVCAR-3 ovarian): > 100 µM
TGI (SF-295 CNS): > 100 µM
TGI (XF 498 CNS): > 100 µM

O=C(CS(=O)c1nc2ccccc2nc1-c1ccccc1)Nc1ccc(Cl)cc1 (stereo not drawn)
TGI (HS 578T breast): 6.88 µM
GI50 (M14 melanoma): 28.4 µM
TGI (M14 melanoma): > 100 µM
GI50 (NCI-H226 lung): 23.1 µM
TGI (NCI-H226 lung): 47.8 µM
GI50 (NCI-H23 lung): 30.7 µM
TGI (NCI-H23 lung): > 100 µM
GI50 (NCI/ADR-RES ovarian): 26.4 µM
TGI (NCI/ADR-RES ovarian): 81.2 µM
GI50 (OVCAR-3 ovarian): 21.5 µM
TGI (OVCAR-3 ovarian): 51.2 µM
GI50 (SF-295 CNS): 15.7 µM
TGI (SF-295 CNS): 48.7 µM
GI50 (SK-OV-3 ovarian): 51.3 µM
TGI (SK-OV-3 ovarian): > 100 µM

O=c1oc2ccc(I)cc2c(=O)n1-c1ccc(I)cc1F
GI50 (HS 578T breast): 0.324 µM
TGI (HS 578T breast): 4.78 µM
GI50 (M14 melanoma): 0.545 µM
TGI (M14 melanoma): 5.87 µM
GI50 (NCI-H226 lung): 1.47 µM
TGI (NCI-H226 lung): 5.88 µM
GI50 (NCI-H23 lung): 0.476 µM
TGI (NCI-H23 lung): 4.39 µM
GI50 (NCI/ADR-RES ovarian): 0.568 µM
TGI (NCI/ADR-RES ovarian): 5.69 µM
GI50 (OVCAR-3 ovarian): 0.44 µM
TGI (OVCAR-3 ovarian): 9.75 µM
GI50 (SF-295 CNS): 1.77 µM
TGI (SF-295 CNS): 3.54 µM
GI50 (SK-OV-3 ovarian): 0.601 µM
TGI (SK-OV-3 ovarian): 2.71 µM

Cn1c2ccccc2c2c(=O)n(CCCC(=O)NCCc3cnc[nH]3)c3c(-c4ccccc4)nnn3c21
GI50 (HS 578T breast): 10.4 µM
TGI (HS 578T breast): 22.6 µM
GI50 (M14 melanoma): 11.9 µM
TGI (M14 melanoma): 24.3 µM
GI50 (NCI-H226 lung): > 50 µM
TGI (NCI-H226 lung): > 50 µM
GI50 (NCI-H23 lung): 13.3 µM
TGI (NCI-H23 lung): 46.9 µM
GI50 (NCI/ADR-RES ovarian): > 50 µM
TGI (NCI/ADR-RES ovarian): > 50 µM
GI50 (OVCAR-3 ovarian): 8.39 µM
TGI (OVCAR-3 ovarian): 16.3 µM
GI50 (SF-295 CNS): 9.18 µM
TGI (SF-295 CNS): 17.8 µM
GI50 (SK-OV-3 ovarian): 10.2 µM
TGI (SK-OV-3 ovarian): 18.7 µM

N#Cc1ccc(C(=O)c2cnn(-c3ccc(F)cc3)c2N)cc1
GI50 (HS 578T breast): > 25 µM
TGI (HS 578T breast): > 25 µM
GI50 (M14 melanoma): > 25 µM
TGI (M14 melanoma): > 25 µM
GI50 (NCI-H226 lung): > 25 µM
TGI (NCI-H226 lung): > 25 µM
GI50 (NCI-H23 lung): > 25 µM
TGI (NCI-H23 lung): > 25 µM
GI50 (NCI/ADR-RES ovarian): > 25 µM
TGI (NCI/ADR-RES ovarian): > 25 µM
GI50 (OVCAR-3 ovarian): > 25 µM
TGI (OVCAR-3 ovarian): > 25 µM
GI50 (SF-295 CNS): > 25 µM
TGI (SF-295 CNS): > 25 µM
GI50 (SK-OV-3 ovarian): > 25 µM
TGI (SK-OV-3 ovarian): > 25 µM
